US8835411B2, “HIV integrase inhibitors” (priority 2010, dated 2014)

Test system: recombinant NL-Rluc virus
Assay: Inhibition of HIV Replication: recombinant NL-Rluc virus, Renilla luciferase reporter
Type: cell-based
Settings: read-out: Cell Culture, serum condition of the table not stated (10% FBS, 15 mg/ml human serum albumin/10% FBS or 40% human serum/5% FBS), at least 2 experiments

**Q.** With CC(=O)NC12CCC(NC(=O)C(=O)N(C)C)(CC1)c1nc(C(=O)NCc3ccc(F)c(C)c3)c(O)c(=O)n1C2 [Example 90] as the compound, how does the EC50 read?
**A.** The EC50 was under 0.01 µM.
